# Laboratory results: patent US20210128596A1, “COMPOSITIONS AND METHODS FOR TREATING SEPTIC CARDIOMYOPATHY” (UNIVERSITY OF PENNSYLVANIA, priority 2017, published 2021)
# What was measured:
# AC16 cells = test: cAMP levels in AC16 cells; type: cell-based, human
# Description: AC16 cells were either left unstimulated or stimulated with either forskolin or isoproterenol for 12 hours and then treated with SDG, Liposaccharide (LPS) or both.
# Cell culture—A human ventricular cardiomyocyte-derived cell line, designated AC-16, was used for some in vitro experiments. Cells were maintained in Dulbecco's modified Eagle's medium-nutrient mixture F-12 (DMEM-F-12; Invitrogen, Carlsbad, Calif.).
# C57BL/6 mice [1] = test: Echocardiography after cecal ligation and puncture (CLP) or sham surgery; type: in vivo, mouse; set-up: LVID; d / EF / FS / LV Mass / LV Mass (Corrected) / LV Vol; d / IVS; d: unit not given here
# Description: Mice were either sham treated or subjected to cecal ligation puncture (CLP). SDG was administered either 2 hours prior to CLP or 6 hours following CLP. Echocardiograms from each group of mice was collected (FIG. 2A) and ejection fraction (EF, left) and fractional shortening (FS, right) was determined.
# Animal care, cecal ligation and puncture procedure and echocardiography—Animal protocols were approved by the Temple University Institutional Animal Care and Use Committee and were carried out in accordance with the NIH guidelines for the care and use of laboratory animals. Wild type (WT) 8-12 week old C57BL/6 mice were purchased from Jackson labs. Cecal ligation and puncture (CLP) was performed as previously described. Mice were anesthetized with 3.5% inhaled isofluorane. Under aseptic conditions, a 1 to 2 cm midline laparotomy was performed and exposure of the cecum with adjoining intestine. The cecum was tightly ligated at its base below the ileo-cecal valve at a distance of lcm and was punctured twice with a 19-gauge needle. The length of the ligated cecum was defined as the distance from the distal end of cecum to ligation point, which affects the degree of disease severity. Fecal material was extruded from the punctured cecum, and it was returned to the peritoneal cavity. The peritoneum and the skin were closed with three sutures. The mice were resuscitated by injecting subcutaneously lml of pre-warmed 0.9% saline solution to induce the hyperdynamic phase of sepsis and for post-operative analgesia the mice received subcutaneously buprenorphine (0.05 mg·kg body weight). Mice received a single intraperitoneal injection of LGM2605 (100 mg/kg i.p.) that was administrated either 2 h prior to CLP or 6 h post CLP. At 12 h post CLP, two-dimensional echocardiography was performed on anesthetized mice (1.5% inhaled isoflurane) using a VisualSonics Vevo 2100 machine. Echocardiographic images were recorded in a digital format. A single observer blinded to the respective treatments of mice analyzed short-axis m-mode images by LV trace. The number of mice used for each experiment are mentioned in the figure legends.
# C57BL/6 mice [2] = test: In vivo cardiac adrenergic sensitivity (hemodynamics, isoproterenol); set-up: species or system mouse; conditions: 12 h post-CLP, LGM2605 6 h post-CLP
# Description: In vivo cardiac adrenergic sensitivity measurements—Hemodynamics measurements were performed, as published^21. Mice were anesthetized with 2% Tribromoethanol (Avertin). The right carotid artery was cannulated with a 1.4 French micro-manometer (Millar Instruments, Houston, Tex.) and was advanced into LV cavity, measuring LV pressure, LV end-diastolic pressure (LVEDP) and heart rate (HR). These parameters as well as maximal values of the instantaneous first derivative of LV pressure (+dP/dtmax, as a measure of cardiac contractility) and minimum values of the instantaneous first derivative of LV pressure (−dP/dtmin, as a measure of cardiac relaxation) were recorded at baseline and after administration, through the jugular vein, of increasing doses of the β-adrenergic receptor (βAR) agonist, isoproterenol (0.1 ng, 0.5 ng, 1 ng, 5 ng, 10 ng). Data was recorded and analyzed on a PowerLab System (AD Instruments).
# [3] = test system: ventricular tissue of septic mice; test: Glucose and fatty-acid metabolism related gene expression in ventricular tissue; type: in vivo, mouse
# Description: (§1) RNA purification and gene expression analysis—Total RNA was purified from AC16 cells or hearts using the TRIzol reagent according to the instructions of the manufacturer (Invitrogen). DNase-treated RNA was used for cDNA synthesis using the ProtoScript II First Strand cDNA Synthesis Kit (New England Biolabs). Quantitative real-time PCR was performed with the Sybr Select Master Mix (Applied Biosystems). Incorporation of the SYBR green dye into the PCR products was monitored with the Applied Biosystems StepOnePlus Real-Time PCR System. Samples were normalized against mouse 36B4 or human rps13 RNA.
# adenylyl cyclase V/VI = test: Adenylyl cyclase V/VI expression (western blot) in CLP mice; type: in vivo, mouse; conditions: SDG following CLP
# Description: Mice were either sham treated (n=3) or subjected to cecal ligation puncture (CLP, n=6). SDG was administered to three mice following CLP.
# [4] = test system: IL-1α, IL-1β, IL-6, IL-10 and TNFα; test: Plasma levels of cytokines (Milliplex); type: in vivo, mouse; conditions: plasma 12 hours post-surgery
# From the text: Inflammatory cytokines measurement—Circulating levels of IL-1α, IL-1β, IL-6, IL-10 and TNFα were quantified simultaneously from frozen plasma samples using the Milliplex MAP Mouse Cytokine kit (MCYTOMAG-70K-05) following the kit specifications. Samples were read using the Luminex MAGPIX multiplexing unit.
# IL-1α, IL-1β, IL-6, TNFα = test: Cardiac mRNA expression of inflammatory cytokines; type: in vivo, mouse; conditions: 6 hours or 12 hours post-CLP
# Description: as §1
# [5] = CLP + LGM2605 (6 hr), 100 mg/kg i.p. 6 h post CLP, echo 12 h post CLP
# [6] = CLP + LGM2605 (−2 hr), 100 mg/kg i.p. 2 h prior to CLP, echo 12 h post CLP
# [7] = Sham + LGM2605 (6 hr), 100 mg/kg i.p., echo 12 h post-surgery
# [8] = ventricular tissue 12 hours after CLP
structure (smiles),measurement,setting,value
"COc1cc(C[C@@H](CO[C@@H]2O[C@H](CO)[C@@H](O)[C@H](O)[C@H]2O)[C@H](CO[C@@H]2O[C@H](CO)[C@@H](O)[C@H](O)[C@H]2O)Cc2ccc(O)c(OC)c2)ccc1O [LGM2605, secoisolariciresinol diglucoside]",cAMP levels,AC16 cells; SDG in the presence of LPS,this increase was abolished in the presence of LPS
same,cAMP levels,AC16 cells; in the presence of forskolin or isoproterenol,appears to be insignificant
same,cAMP levels,"AC16 cells; non-stimulated, 12 hours",increased cAMP levels
same,EF,C57BL/6 mice [1]; [5],72.7
same,FS,C57BL/6 mice [1]; [5],41.3
same,IVS; d,C57BL/6 mice [1]; [5],1.4
same,IVS; s,C57BL/6 mice [1]; [5],1.8
same,LV Mass,C57BL/6 mice [1]; [5],129.2
same,LV Mass (Corrected),C57BL/6 mice [1]; [5],103.3
same,LV Vol; d,C57BL/6 mice [1]; [5],30.2
same,LV Vol; s,C57BL/6 mice [1]; [5],8.4
same,LVID; d,C57BL/6 mice [1]; [5],2.8
same,LVID; s,C57BL/6 mice [1]; [5],1.6
same,LVPW; d,C57BL/6 mice [1]; [5],1.1
same,LVPW; s,C57BL/6 mice [1]; [5],1.6
same,EF,C57BL/6 mice [1]; [6],71.7
same,FS,C57BL/6 mice [1]; [6],39.3
same,IVS; d,C57BL/6 mice [1]; [6],1.3
same,IVS; s,C57BL/6 mice [1]; [6],1.6
same,LV Mass,C57BL/6 mice [1]; [6],97.2
same,LV Mass (Corrected),C57BL/6 mice [1]; [6],77.8
same,LV Vol; d,C57BL/6 mice [1]; [6],18.6
same,LV Vol; s,C57BL/6 mice [1]; [6],5.3
same,LVID; d,C57BL/6 mice [1]; [6],2.3
same,LVID; s,C57BL/6 mice [1]; [6],1.4
same,LVPW; d,C57BL/6 mice [1]; [6],1.1
same,LVPW; s,C57BL/6 mice [1]; [6],1.5
same,CLP-mediated cardiac dysfunction,C57BL/6 mice [1]; LGM2605 100 mg/kg i.p. 2 h prior to CLP or 6 h post-CLP,prevented CLP-mediated cardiac dysfunction
same,cardiac fractional shortening,"C57BL/6 mice [1]; SDG 100 mg/kg body weight, i.p., 6 hours post-CLP surgery",increased cardiac fractional shortening
same,ejection fraction (EF) and fractional shortening (FS),C57BL/6 mice [1]; SDG 2 hours prior to CLP or 6 hours following CLP,restores EF and to pre-CLP levels
same,EF,C57BL/6 mice [1]; [7],66.7
same,FS,C57BL/6 mice [1]; [7],36.4
same,IVS; d,C57BL/6 mice [1]; [7],1.1
same,IVS; s,C57BL/6 mice [1]; [7],1.5
same,LV Mass,C57BL/6 mice [1]; [7],146.7
same,LV Mass (Corrected),C57BL/6 mice [1]; [7],117.4
same,LV Vol; d,C57BL/6 mice [1]; [7],55.4
same,LV Vol; s,C57BL/6 mice [1]; [7],17.9
same,LVID; d,C57BL/6 mice [1]; [7],3.6
same,LVID; s,C57BL/6 mice [1]; [7],2.3
same,LVPW; d,C57BL/6 mice [1]; [7],1.0
same,LVPW; s,C57BL/6 mice [1]; [7],1.4
same,systolic function,C57BL/6 mice [1]; septic mice treated with LGM2605,normal systolic function
same,responsiveness to isoproterenol,C57BL/6 mice [2],less robust in both septic groups regardless of LGM2605 treatment
same,basal LVdP/dtmax and LVdP/dtmin,C57BL/6 mice [2]; compared to sham surgery,lower basal myocardial LVdP/dtmax (FIG. 14B) and LVdP/dtmin (FIG. 14C) with or without LGM2605 administration
same,expression of fatty acid oxidation and glucose metabolism-related genes,[3]; CLP mice treated with SDG,did not restore the expression of fatty acid oxidation and glucose metabolism-related genes
same,PPARα and LCAD expression,[3]; [8],did not reverse the CLP-mediated changes in the PPARα and LCAD
same,cardiac PDK4 mRNA levels,[3]; [8],This increase was not alleviated by administration of LGM2605
same,adenylyl cyclase V/VI expression (AC/GAPDH ratio),adenylyl cyclase V/VI,restores cyclase V/VI expression pre-CLP levels
same,"circulating levels of IL-1α, IL-1β, IL-6, TNFα and IL-10",[4],did not reduce circulating levels
same,"cardiac mRNA levels of IL-1α, IL-1β, IL-6, and TNFα","IL-1α, IL-1β, IL-6, TNFα",did not reduce mRNA levels
